Measured values taken from EP0330992A2, “Novel cyclobutane Derivatives, processes for their preparation and pharmaceutical compositions comprising them” (Nippon Kayaku Kabushiki Kaisha, priority 1988, dated 1989).
In brackets after ≈: the same amount, converted by molar mass.

Legend:
Format in all cases: cell-based
[1] = test system: human cytomegalovirus (HCMV); assay: Anticytomegaloviral plaque formation inhibition in human fetal fibroblast (Test Example 2, Method 2); conditions: Human betaherpesvirus 5, 240 h, AO169 strain, 10 days, read-out: IC₅₀ HCMV
Procedure: An activity against human cytomegalovirus (HCMV) which was DNA virus was examined by the following method.
Anticytomegaloviral activity was determined in terms of 50% inhibitory concentration (IC₅₀) by infecting 35 mm dish having a single layer of human fetal fibroblast with 100 PFU (plaque forming unit) of cytomegalovirus (AO169 strain), adsorbing for an hour, laying thereon a medium containing the compound of each concentration supplemented with 0.5% agarose and 2% fetal calf serum, culturing at 37°C for 10 days in a 5% (v/v) carbon dioxide gas incubator and measuring formation of plaque.

[2] = test system: mouse leukemia P388 cells; assay: Growth inhibition of P388 cells, cell count (Test Example 5, Method 6); conditions: 50% growth inhibitory concentration, 48 hours, read-out: IC₅₀ P338
Procedure: (§1) Anticancer activity against human uterine cervical cancer HeLa S₃, mouse leukemia L1210 and P388 cells was examined by the following method. P388 and L1210 cells were inoculated on a 24 well plate and the compound was added thereto followed by incubation at 37°C for 48 hours in 5% CO₂. The number of cells after the incubation was counted with a Caulter counter. The growth inhibition rate of the treated group to the control group was calculated according to the equation below and 50% growth inhibitory concentration (IC₅₀, µg/ml) was determined by the Litchfield method. Growth inhibition rate (%) = [1 - (NT-N₀)/(Nc-N₀)] x 100 wherein NT = cell count of the treated group N₀ = cell count at the onset of incubation Nc = cell count of the control group

[3] = test system: herpes simplex virus type 1 (HSV-I); assay: Plaque formation inhibition in Vero cells (Test Example 1, Method 1); conditions: Human alphaherpesvirus 1, 48 hours, read-out: IC₅₀ HSV-1
Procedure: (§2) Antiviral activity against herpes simplex virus type 1 (HSV-I) and herpes simplex virus type 2 (HSV-II) which were DNA viruses was examined by the following methods.
(§3) A 6 well multiplate bearing a single layr of Vero cells (derived from African green monkey kidney cell) was infected with 100-150 PFU (plaque forming unit) of virus. After (infection) at 37°C for an hour, agar medium (Eagle's MEM medium supplemented with 1.5% agar) containing a sample of each concentration was put on the single layer followed by culturing at 37°C for 48 hours in a 5% (v/v) carbon dioxide incubator. Thereafter, formation of plaque was measured to determine 50% inhibitory concentration (IC₅₀).

[4] = test system: mouse leukemia L1210 cells; assay: Growth inhibition of L1210 cells, cell count (Test Example 5, Method 6); conditions: 50% growth inhibitory concentration, 48 hours, read-out: IC₅₀ L1210
Procedure: as §1

[5] = test system: human uterine cervical cancer HeLa S₃; assay: Growth inhibition of HeLa S3 cells, Methylene Blue staining (Test Example 5, Method 5); conditions: 50% growth inhibitory concentration, 72 hours, read-out: IC₅₀ HeLaS₃
Procedure: Anticancer activity against human uterine cervical cancer HeLa S₃, mouse leukemia L1210 and P388 cells was examined by the following method. HeLa S₃ cells were prepared in a concentration of 7.5 x 10³ cells/ml and inoculated on a 96 well flat bottom plate by 0.2 ml/well each. After culturing at 37°C for 24 hours in a 5% CO₂ incubator, 10 µl of the compound was added thereto followed by culturing for 72 hours. After culturing, the culture medium of each well was withdrawn and fixed with methanol. Then, 0.1 ml/well each of 0.05% Methylene Blue/10 mM-Tris-HCl (pH 8.5) solution was added to stain at room temperature for 30 minutes. After withdrawing the dyeing solution from each well using an aspirator, the well was washed 3 times with pure water. After adding 3% HCl in a ratio of 0.2 ml/well, the well was sealed and allowed to stand at room temperature for about 24 hours and the dye was then extracted from the cells. Absorbance of each well at 660 nm was measured with Dynatec microplate reader. The growth inhibition rate treated wells to the control wells were calculated according to the equation below and 50% growth inhibitory concentration (IC₅₀, µg/ml) was determined by the Litchfield method. Growth inhibition rate (%) = (1 - A₁/A₀) x 100 wherein A₁ = Absorbance of the treated group A₀ = Absorbance of the control group

AIDS virus (HIV) = assay: Anti-HIV activity in MT-4 cells, viral antigen by fluorescent antibody method (Test Example 4, Method 4); conditions: Human immunodeficiency virus 1, MT4, 96 h, read-out: IC₅₀ HIV
Procedure: Activity against AIDS virus (HIV) which was RNA virus was examined by the following method.
In an anti-HIV (human immunodeficiency virus) active 24 well tray were charged about 50,000/ml of MT-4 cells. Further […] of a solution containing a definite amount of the compound of this invention was added thereto. After culturing at 37°C for 2 hours in a 5% (v/v) carbon dioxide gas incubator, 10³-10⁴ infection units of HIV were added thereto. After culturing for 4 days, a part of the culture solution was smeared on a slide glass and fixed with acetone. Then, occurrence of viral antigen was observed by fluorescent antibody method.
As primary antibody in the fluorescent antibody method, serum from the patient with AIDS was used and FITC-labeled anti-human IgG was used as secondary antibody.

[6] = test system: herpes simplex virus type 2 (HSV-II); assay: Plaque formation inhibition in Vero cells (Test Example 1, Method 1); conditions: Human alphaherpesvirus 2, 48 hours, read-out: IC₅₀ HSV-2
Procedure: as §2, §3

hepatitis B virus (HBV) = assay: Hepatitis B virus DNA in liver cell line HB611, Southern method (Test Example 3, Method 3); conditions: 360 h, HB611 cells, 15 days, HBV DNA by Southern method, read-out: IC₅₀ HBV
Procedure: Activity against hepatitis B virus (HBV) which was DNA virus was examined by the following method.
Incubated liver cell line HB611 (Proc. Natl. Acad. Sci. USA, 84 (1987), 444) capable of producing and releasing activated hepatitis B virus was cultured in modified Eagle's medium (GIBCO) at 37°C in 5% CO₂ in the presence 10% fetal calf serum, 200 µg/ml of G418 and 100 U/ml each of penicillin and streptomycin. The culture was inoculated on a 6 well plate in 5 x 10⁴ cells/well (35 mm). When 50% confluent state was achieved 1 or 2 days after, a definite quantity of this compound was added and the mixture was cultured. While exchanging with a medium containing the compound in the same concentration every 3 other days, incubation was continued for 15 days. Thereafter the medium was removed. The cells were treated with 0.5 ml of lysis buffer (10 mM Tris HCl, pH 7.8/5 mM Na₂EDTA, 1% SDS/0.1 mg/ml Pronase K) at 37°C for an hour. The resulting DNA was treated with RNase and purified by treatment with phenol and chloroform and then precipitation with ethanol.
Then, 5 µg of DNA was treated with Hind III and DNA pattern was analyzed by the Southern method using as a probe ³²P-labeled hepatitis B virus DNA.

| SMILES | IC50 [1] | IC50 [2] | IC50 [3] | IC50 [4] | IC50 [5] | IC50 (AIDS virus (HIV)) | IC50 [6] | IC50 (hepatitis B virus (HBV)) |
| --- | --- | --- | --- | --- | --- | --- | --- | --- |
| O=c1[nH]cnc2c1ncn2[C@@H]1C[C@H](CO)[C@H]1O (racemic) [Compound 4-2, (±)-9-[(1β,2α,3β)-2-hydroxy-3-hydroxymethylcyclobutan-1-yl]hypoxanthine] | 2.8 µg/mL (≈ 11.9 µM) | – | – | – | – | – | – | – |
| Nc1nc(Cl)c2ncn([C@@H]3C[C@H](CO)[C@H]3O)c2n1 (racemic) [Compound 4-3, (±)-2-amino-6-chloro-9-[(1β,2α,3β)-2-hydroxy-3-hydroxymethylcyclobutan-1-yl]purine] | 3.3 µg/mL (≈ 12.2 µM) | 12 µg/mL (≈ 44.5 µM) | 8.5 µg/mL (≈ 31.5 µM) | 8 µg/mL (≈ 29.7 µM) | 66 µg/mL (≈ 245 µM) | – | – | – |
| Nc1nc(N)c2ncn([C@@H]3C[C@H](CO)[C@H]3O)c2n1 (racemic) [Compound 4-4, (±)-2,6-diamino-9-[(1β,2α,3β)-2-hydroxy-3-hydroxymethylcyclobutan-1-yl]purine] | 0.69 µg/mL (≈ 2.76 µM) | 3.4 µg/mL (≈ 13.6 µM) | 2.2 µg/mL (≈ 8.79 µM) | 2.4 µg/mL (≈ 9.59 µM) | 21 µg/mL (≈ 83.9 µM) | 3 µg/mL (≈ 12 µM) | – | – |
| Nc1ncnc2c1ncn2[C@@H]1C[C@H](CO)[C@H]1O (racemic) [Compound 7, (±)-9-[(1β,2α,3β)-2-hydroxy-3-hydroxymethylcyclobutan-1-yl]adenine] | 0.45 µg/mL (≈ 1.91 µM) | 1.64 µg/mL (≈ 6.97 µM) | 4 µg/mL (≈ 17 µM) | 1.84 µg/mL (≈ 7.82 µM) | 6.97 µg/mL (≈ 29.6 µM) | – | – | – |
| Nc1nc2c(ncn2[C@@H]2C[C@H](CO)[C@H]2O)c(=O)[nH]1 (racemic) [Compound 9, (±)-9-[(1β,2α,3β)-2-hydroxy-3-hydroxymethylcyclobutan-1-yl]guanine] | 0.95 µg/mL (≈ 3.78 µM) | 2.57 µg/mL (≈ 10.2 µM) | 0.3 µg/mL (≈ 1.19 µM) | 2.56 µg/mL (≈ 10.2 µM) | 10.9 µg/mL (≈ 43.4 µM) | – | 0.31 µg/mL (≈ 1.23 µM) | – |
| [N-]=[N+]=N[C@@H]1[C@@H](CO)C[C@H]1n1cc(F)c(=O)[nH]c1=O (racemic) [Compound 14, (±)-1-[(1β,2α,3β)-2-azido-3-hydroxymethylcyclobutan-1-yl]-5-fluoro-2,4(1H,3H)-pyrimidinedione] | 20 µg/mL (≈ 78.4 µM) | – | – | – | – | – | – | 32 µg/mL (≈ 125 µM) |
| Cc1cn([C@@H]2C[C@H](CO)[C@H]2N)c(=O)[nH]c1=O (racemic) [Compound 17, (±)-1-[(1β,2α,3β)-2-amino-3-hydroxymethylcyclobutan-1-yl]-5-methyl-2,4(1H,3H)-pyrimidinedione] | – | – | – | – | – | – | – | 35 µg/mL (≈ 155 µM) |
| Nc1ncnc2c1ncn2[C@H]1C[C@@H](CO)C1 [Compound 2-1, 9-[(1β,3β)-3-hydroxymethylcyclobutan-1-yl]adenine] | – | 34.1 µg/mL (≈ 156 µM) | – | 63.1 µg/mL (≈ 288 µM) | 100 µg/mL (≈ 456 µM) | 0.3 µg/mL (≈ 1.37 µM) | – | 2 µg/mL (≈ 9.12 µM) |
| Nc1nc2c(ncn2[C@H]2C[C@@H](CO)C2)c(=O)[nH]1 [Compound 2-2, 9-[(1β,3β)-3-hydroxymethylcyclobutan-1-yl]guanine] | 2.6 µg/mL (≈ 11.1 µM) | 11.5 µg/mL (≈ 48.9 µM) | 1.6 µg/mL (≈ 6.8 µM) | 23.1 µg/mL (≈ 98.2 µM) | 30 µg/mL (≈ 128 µM) | 10 µg/mL (≈ 42.5 µM) | 3.6 µg/mL (≈ 15.3 µM) | – |
